Results published in patent US20150031714A1, “METHODS AND COMPOSITIONS FOR PREVENTION OF ALLERGIC REACTION” (Baylor College of Medicine, priority 2013, published 2015).

Experiments:
Stat3 (pY705) = assay: Immunoblot assay of IL-6-mediated phosphorylation of Stat3 in HepG2 cells; type: cell-based; conditions: Homo sapiens; Table 4; HepG2, compound 60 min, IL-6 30 ng/ml 30 min; read-out: pStat3 IC50
Method: Cells were then stimulated with IL-6 (30 ng/ml) for 30 min. Protein extracts of cells were separated by SDS-PAGE, blotted and developed serially with antibodies to pStat3, total Stat3 and β-actin. Blots were stripped between each antibody probing. The bands intensities of immunoblot were quantified by densitometry. The value of each pStat3 band's intensity was divided by each corresponding value of total Stat3 band intensity and the results normalized to the DMSO-treated control value and plotted as a function of the log compound concentration. The best-fit curves were generated based on 4 Parameter Logistic Model/Dose Response One Site/XLfit 4.2, IDBS. Each panel is representative of 3 or more experiments.
Immunoblot assay. The human hepatocellular carcinoma cell line (HepG2) was grown in 6-well plates under standard conditions. Cells were pretreated with compounds (0, 1, 3, 10, 30, 100 and 300 uM) for 1 hour then stimulated under optimal conditions with either interferon gamma (IFN-γ; 30 ng/ml for 30 min) to activate Stat1 or interleukin-6 (IL-6; 30 ng/ml for 30 min) to activate Stat3 (30-31). Cultures were then harvested and proteins extracted using high-salt buffer, as described (Shao et al., 2006). […]
EXP IIC. […] Band intensities are quantified by densitometry. […]

Stat1 (pY701) = assay: Immunoblot assay of IFN-γ-mediated Stat1 phosphorylation in HepG2 cells; type: cell-based, human; conditions: 300 μM, 1 hour at 37° C.
Method: HepG2 cells were pretreated with DMSO alone or DMSO containing each of the compounds at a concentration of 300 μM for 60 min. Cells were then stimulated with IFN-γ (30 ng/ml) for 30 min. Protein extracts of cells were separated by SDS-PAGE and immunoblotted serially with antibodies to pStat1, total Stat1 and β-actin. Blots were stripped between each immunoblotting. The results shown are representative of 2 or more experiments.
Immunoblot assay. The human hepatocellular carcinoma cell line (HepG2) was grown in 6-well plates under standard conditions. Cells were pretreated with compounds (0, 1, 3, 10, 30, 100 and 300 uM) for 1 hour then stimulated under optimal conditions with either interferon gamma (IFN-γ; 30 ng/ml for 30 min) to activate Stat1 or interleukin-6 (IL-6; 30 ng/ml for 30 min) to activate Stat3 (30-31). Cultures were then harvested and proteins extracted using high-salt buffer, as described (Shao et al., 2006). Briefly, extracts were mixed with 2× sodium dodecyl sulfate (SDS) sample buffer (125 mmol/L Tris-HCL pH 6.8; 4% SDS; 20% glycerol; 10% 2-mercaptoethanol) at a 1:1 ratio and heated for 5 minutes at 100° C. Proteins (20 μg) were separated by 7.5% SDS-PAGE and transferred to polyvinylidene fluoride (PVDF) membrane (Millipore, Waltham, Mass.) and immunoblotted. Prestained molecular weight markers (Biorad, Hercules, Calif.) were included in each gel. Membranes were probed serially with antibody against Stat1 pY^701 or Stat3 pY^705 followed by antibody against Stat1 or Stat3 (Transduction labs, Lexington, Ky.) then antibody against β-actin (Abcam, Cambridge, Mass.). Membranes were stripped between antibody probing using Restore™ Western Blot Stripping Buffer (Thermo Fisher Scientific Inc., Waltham, Mass.) per the manufacturer's instructions. Horseradish peroxidase-conjugated goat-anti-mouse IgG was used as the secondary antibody (Invitrogen Carlsbad, Calif.) and the membranes were developed with enhanced chemiluminescence (ECL) detection system (Amersham Life Sciences Inc.; Arlington Heights, Ill.).
While Stat3 contributes to oncogenesis, in part, through inhibition of apoptosis, Stat1 is anti-oncogenic; it mediates the apoptotic effects of interferons and contributes to tumor surveillance (Kaplan et al., 1998; Ramana et al., 2000). Consequently, compounds that target Stat3 while sparing Stat1, leaving its anti-oncogenic functions unopposed, may result in a synergistic anti-tumor effect. […] Thus, five of the six exemplary compounds identified were selective and inhibited ligand-stimulated phosphorylation of Stat3 but not Stat1.
EXP IIC. Ligand-mediated pStat3 and pStat1 inhibition assays. […] Briefly, human hepatocellular carcinoma cells (HepG2) are grown in 6-well plates and pretreated with compounds (0, 0.1, 0.3, 1, 3, 10, 30, 100 μM) for 1 hour then stimulated under optimal conditions with either interleukin-6 (IL-6; 30 ng/ml for 30 min) to activate Stat3 or interferon gamma (IFN-γ; 30 ng/ml for 30 min) to activate Stat1. Cells are harvested and proteins extracted using high-salt buffer, mixed with 2× sodium dodecyl sulfate (SDS) sample buffer (125 mmol/L Tris-HCL pH 6.8; 4% SDS; 20% glycerol; 10%2-mercaptoethanol) at a 1:1 ratio then heated for 5 minutes at 100° C. Proteins (20 μg) are separated by 7.5% SDS-PAGE and transferred to polyvinylidene fluoride (PVDF) membrane (Millipore, Waltham, Mass.) and immunoblotted. Membranes are probed serially with antibody against Stat1 pY701 or Stat3 pY705 followed by antibody against Stat1 or Stat3 (Transduction labs, Lexington, Ky.) then antibody against β-actin (Abcam, Cambridge, Mass.). Membranes are stripped between antibody probings using Restore™ Western Blot Stripping Buffer (Thermo Fisher Scientific Inc., Waltham, Mass.) per the manufacturer's instructions. […]

IC50 (Stat3 (pY705)) [µM] | Compound | Stat1 phosphorylation after IFN-γ stimulation (Stat1 (pY701))
91 | O=C(O)c1ccc(C=CC(=O)c2ccc3c(c2)OCCO3)cc1 [Cpd3, 4-[3-(2,3-dihydro-1,4-benzodioxin-6-yl)-3-oxo-1-propen-1-yl]benzoic acid] | did not
144 | CCOc1cc(C=C2C(=O)c3ccccc3C2=O)cc(Cl)c1OCc1cccc(C(=O)O)c1 [Cpd3-2, 3-({2-chloro-4-[(1,3-dioxo-1,3-dihydro-2H-inden-2-ylidene)methyl]-6-ethoxyphenoxy}methyl)benzoic acid] | did not
